According to PubChem BioAssay (NCI):
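48-hour exposure; five concentrations; linearly interpolated endpoints. GI50 = concentration required for 50% inhibition of growth. TGI denotes the concentration required for complete inhibition of growth.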

How the values were obtained:
Assay in all cases: NCI anticancer screen, dose series, 48 h; in the data active = GI50 below about 0.43 µM; inactive = the rest
[1] = system: 786-0 renal
[2] = system: SK-MEL-28 melanoma
[3] = system: NCI-H23 lung
[4] = system: RXF 393 renal
[5] = system: SF-268 CNS
[6] = system: SR leukemia
[7] = system: SK-MEL-5 melanoma
[8] = system: A498 renal
[9] = system: EKVX NSCLC
[10] = system: UO-31 renal
[11] = system: SN12C renal
[12] = system: PC-3 prostate
[13] = system: MDA-MB-435
[14] = system: UACC-62 melanoma
[15] = system: HL-60(TB) leukemia
[16] = system: A549 NSCLC
[17] = system: MCF7 breast
[18] = system: HOP-62 NSCLC
[19] = system: ACHN renal
[20] = system: K-562 leukemia
[21] = system: SF-539 CNS
[22] = system: NCI-H226 lung
[23] = system: SF-295 CNS
[24] = system: DU-145 prostate
[25] = system: SNB-19 CNS
[26] = system: LOX IMVI melanoma
[27] = system: U251 CNS
[28] = system: NCI/ADR-RES ovarian
[29] = system: SK-OV-3 ovarian

COc1ccc2c(c1)CC[C@@H]1[C@@H]2CC[C@]2(C)C(c3ccsc3)=C(/C=C/C(=O)c3ccccc3)C[C@@H]12
> 100 µM: TGI [1] | TGI [2] | TGI [3] | TGI [4] | TGI [5] | TGI [6] | TGI [7] | TGI [8] | TGI [9] | TGI [10] | TGI [11] | TGI [12] | TGI [13] | TGI [14] | TGI [15] | TGI [16] | TGI [17] | TGI [18] | TGI [19] | TGI [20] | TGI [21] | TGI [22] | TGI [23] | TGI [24] | TGI [25] | TGI [26] | TGI [27] | TGI [28] | TGI [29]
inactive: GI50 [2] > 100 µM | GI50 [3] > 100 µM | GI50 [4] > 100 µM | GI50 [5] > 100 µM | GI50 [6] 19.9 µM | GI50 [7] > 100 µM | GI50 [8] > 100 µM | GI50 [9] > 100 µM | GI50 [10] > 100 µM | GI50 [11] > 100 µM | GI50 [12] 39 µM | GI50 [13] > 100 µM | GI50 [14] > 100 µM | GI50 [15] 13.4 µM | GI50 [16] > 100 µM | GI50 [17] > 100 µM | GI50 [18] > 100 µM | GI50 [19] > 100 µM | GI50 [20] > 100 µM | GI50 [21] > 100 µM | GI50 [22] > 100 µM | GI50 [23] > 100 µM | GI50 [24] > 100 µM | GI50 [25] > 100 µM | GI50 [26] > 100 µM | GI50 [27] > 100 µM | GI50 [28] > 100 µM | GI50 [29] > 100 µM
